According to US20260297542A1, “HERBICIDE RESISTANT PLANTS” (SYNGENTA CROP PROTECTION AG, priority 2023, published 2026):
Residue numbers refer to the chain shown, from its start.

Key:
[1] = target: T1, His-TEV-AtPPO1 ΔcTP V002 (SEQ ID NO: 373) (Arabidopsis thaliana, UniProt P55826, L479M/S305L/Y426V); experiment: activity rate of PPO variant in in vitro assay; format: biochemical; details: role: substrate; 1 uM protoporphyrinogen IX; no inhibitor
T1 construct: with cTPs removed; made in house; host or cells: E. coli BL21 (DE3), His GraviTrap, partially purified
T1 sequence (P55826 with tags, fused parts or gaps S305L/Y426V/L479M): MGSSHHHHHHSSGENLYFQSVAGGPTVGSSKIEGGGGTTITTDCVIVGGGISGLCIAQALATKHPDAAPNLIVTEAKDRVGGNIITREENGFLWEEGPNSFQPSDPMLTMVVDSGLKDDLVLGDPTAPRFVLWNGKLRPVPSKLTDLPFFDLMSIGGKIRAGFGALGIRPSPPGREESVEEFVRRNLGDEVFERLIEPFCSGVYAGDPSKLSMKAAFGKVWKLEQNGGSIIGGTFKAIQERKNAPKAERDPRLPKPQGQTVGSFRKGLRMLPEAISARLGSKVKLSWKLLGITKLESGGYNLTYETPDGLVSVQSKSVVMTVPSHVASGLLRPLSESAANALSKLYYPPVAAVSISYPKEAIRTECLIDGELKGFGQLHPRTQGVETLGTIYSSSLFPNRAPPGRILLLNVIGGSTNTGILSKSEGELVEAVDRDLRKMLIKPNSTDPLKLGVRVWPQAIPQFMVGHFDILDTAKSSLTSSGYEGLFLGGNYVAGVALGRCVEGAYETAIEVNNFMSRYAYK
Text: (§1) A pET24 plasmid containing a DNA sequence encoding variants of AtPPO1 derived from Arabidopsis thaliana with cTPs removed and both a 6×His tag and TEV protease cleavage tag added at the N-terminus, codon-optimised for expression in E. coli, and under control of a T7 promoter, was synthesised by Twist Bioscience. The following variants were synthesised: WT AtPPO1 (SEQ ID NO: 370), AtPPO1 L479M (SEQ ID NO: 371), AtPPO1 L479N (SEQ ID NO: 372), AtPPO1 S305L Y426V (SEQ ID NO: 374) and AtPPO1 S305L Y426V L479M (SEQ ID NO: 373). This plasmid was expressed in E. coli BL21 (DE3) with 50 μg/mL kanamycin selection. 10 mL of overnight cultures grown at 37° C. were used to inoculate 1 L AIM (AIM-Terrific Broth Base including Trace elements, Formedium) in 2 L shake flasks. Cultures were grown at 37° C., 200 rpm for 3 hours and then overnight at 26° C. Cells were harvested centrifugation. 5-15 g of cell pellet was lysed in and resuspended in ratio of 1:1.5 in lysis buffer (20 mM Tris pH8, 500 mM sodium chloride, 10% glycerol, 1× complete Protease EDTA-free Inhibitor Tablet (Roche), 10 mM imidazole). The resuspension was sonicated at 75% using 10 cycles of 30 seconds, 40 seconds off. After sonication Triton X-100 was added to the lysates at a final concentration of 0.5%. The lysates were centrifuged at 20,000 rpm for 25 min at 4° C. Cleared lysates were loaded on His GraviTrap (Cytiva) columns, washed with 20 mL of lysis buffer and eluted in elution buffer (20 mM Tris pH8, 500 mM sodium chloride, 10% glycerol, 200 mM imidazole, 0.03% (v/v) Triton X-100). The eluate was desalted on a PD10 column and 2.5-3.2 mL was collected. Protein concentration was measured and calculated using the absorbance at 280 nm. Extracts were diluted 1 in 4 and 10 uL was analysed by SDS PAGE.
(§2) Partially purified Protoporphyrinogen Oxidase enzymes were assayed for activity using fluorescence adapted from the method of Shepherd & Dailey (Anal Biochem. 2005 344(1) 115-121). The assay was performed in black 384 well plates with a clear bottom and the total volume of the reaction mixture was 91 ul. The final assay mixture contained 100 mM K2HPO4 pH7.2, 1 mM Na2EDTA, 5 mM DTT, 20% glycerol (v/v), 0.05% Tween 20 (v/v), 1.1% DMSO (v/v), 1 uM protoporphyrinogen IX and 1.5 nM enzyme. Compounds were dissolved in DMSO at 1 mM and a 4-fold serial dilution carried out to give 8 rates. 1 ul was added to the assay mixture. This gave final compound concentrations of 11, 2.7, 0.69, 0.17, 0.04, 0.01, 0.002, 0.0007 uM. Enzyme and inhibitor were preincubated for 5 minutes prior to starting the reaction with the addition of the substrate. […] IC50s were calculated using GraphPad Prism 7.05 nonlinear regression (Table 6). Each compound was tested in duplicate.

[2] = target: T2, His-TEV-AtPP01 ΔcTP V030 (SEQ ID NO: 374) (Arabidopsis thaliana, UniProt P55826, S305L/Y426V); experiment: activity rate of PPO variant in in vitro assay; format: biochemical; details: role: substrate; 1 uM protoporphyrinogen IX; no inhibitor
T2 construct: with cTPs removed; made in house; host or cells: E. coli BL21 (DE3), His GraviTrap, partially purified
T2 sequence (P55826 with tags, fused parts or gaps S305L/Y426V): T1 sequence (P55826 with tags, fused parts or gaps S305L/Y426V/L479M) with M464L
Text: as §1, §2

C=Cc1c2[nH]c(c1C)Cc1[nH]c(c(CCC(=O)O)c1C)Cc1[nH]c(c(C)c1CCC(=O)O)Cc1[nH]c(c(C)c1C=C)C2 [protoporphyrinogen IX]
Rate [1]: 7.6 rfu second^−1 pmole^−1 | Rate [2]: 5.3 rfu second^−1 pmole^−1
